Source: PubChem BioAssay (NCI)
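These data come from cells grown in 96-well plates and exposed to compound for 48 hours at five concentrations. The concentration for 50% growth inhibition is given as GI50. At the TGI there is no net growth.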

Tests used:
Experiment in all cases: NCI anticancer screen, dose series, 48 h
[1] = test system: CCRF-CEM leukemia
[2] = test system: HCC-2998 colon
[3] = test system: HCT-116 colon
[4] = test system: HL-60(TB) leukemia
[5] = test system: HOP-92 NSCLC
[6] = test system: HS 578T breast
[7] = test system: IGROV1 ovarian
[8] = test system: K-562 leukemia
[9] = test system: MOLT-4 leukemia
[10] = test system: NCI-H23 lung
[11] = test system: NCI-H522 lung
[12] = test system: NCI/ADR-RES ovarian
[13] = test system: RXF 393 renal
[14] = test system: SF-268 CNS
[15] = test system: SK-MEL-2 melanoma
[16] = test system: SNB-19 CNS
[17] = test system: SNB-75 CNS
[18] = test system: A549 NSCLC
[19] = test system: ACHN renal
[20] = test system: COLO 205 colon
[21] = test system: DU-145 prostate
[22] = test system: EKVX NSCLC
[23] = test system: LOX IMVI melanoma
[24] = test system: MALME-3M melanoma
[25] = test system: MCF7 breast
[26] = test system: MDA-MB-231 breast
[27] = test system: MDA-MB-435
[28] = test system: NCI-H460 lung
[29] = test system: OVCAR-3 ovarian
[30] = test system: OVCAR-4 ovarian
[31] = test system: OVCAR-5 ovarian
[32] = test system: RPMI-8226 leukemia
[33] = test system: SF-295 CNS
[34] = test system: SF-539 CNS
[35] = test system: SK-MEL-5 melanoma
[36] = test system: SK-OV-3 ovarian
[37] = test system: SN12C renal
[38] = test system: SW-620 colon
[39] = test system: T-47D breast
[40] = test system: TK-10 renal
[41] = test system: U251 CNS
[42] = test system: UACC-257 melanoma
[43] = test system: UACC-62 melanoma
[44] = test system: 786-0 renal
[45] = test system: CAKI-1 renal
[46] = test system: HOP-62 NSCLC
[47] = test system: NCI-H226 lung
[48] = test system: PC-3 prostate
[49] = test system: UO-31 renal

O=c1cc(-c2ccccc2)oc2cc(OCc3cn(Cc4ccc(F)cc4)nn3)cc(OCc3cn(Cc4ccc(F)cc4)nn3)c12
GI50 [1]: > 100 µM | TGI [1]: > 100 µM | GI50 [2]: > 100 µM | TGI [2]: > 100 µM | GI50 [3]: 3.52 µM | TGI [3]: > 100 µM | GI50 [4]: > 100 µM | TGI [4]: > 100 µM | GI50 [5]: 1.89 µM | TGI [5]: 5.52 µM | GI50 [6]: 3.28 µM | TGI [6]: > 100 µM | GI50 [7]: 4.45 µM | TGI [7]: > 100 µM | GI50 [8]: > 100 µM | TGI [8]: > 100 µM | GI50 [9]: > 100 µM | TGI [9]: > 100 µM | GI50 [10]: 3.7 µM | TGI [10]: > 100 µM | GI50 [11]: 3.66 µM | TGI [11]: > 100 µM | GI50 [12]: > 100 µM | TGI [12]: > 100 µM | GI50 [13]: 1.78 µM | TGI [13]: 4.5 µM | GI50 [14]: 3.52 µM | TGI [14]: > 100 µM | GI50 [15]: 4.49 µM | TGI [15]: 33.1 µM | GI50 [16]: 4.55 µM | TGI [16]: > 100 µM | GI50 [17]: 1.69 µM | TGI [17]: 4.85 µM

Cc1ccc2c(c1)C(=O)C(c1c(-c3[nH]c(=O)c4ccc(C)cc4c3O)c(O)c3ccccc3c1O)=NC2=O
GI50 [18]: 2.1 µM | TGI [18]: 4.26 µM | GI50 [19]: 1.72 µM | TGI [19]: 4.36 µM | GI50 [1]: 0.83 µM | TGI [1]: 8.03 µM | GI50 [20]: 2.85 µM | TGI [20]: 12.8 µM | GI50 [21]: 1.18 µM | TGI [21]: 2.9 µM | GI50 [22]: 1.72 µM | TGI [22]: 5.66 µM | GI50 [2]: 2.3 µM | TGI [2]: 4.97 µM | GI50 [3]: 0.423 µM | TGI [3]: 1.53 µM | GI50 [5]: 1.66 µM | TGI [5]: 5.1 µM | GI50 [6]: 2.34 µM | TGI [6]: 6.33 µM | GI50 [8]: 0.378 µM | TGI [8]: 3.44 µM | GI50 [23]: 1.28 µM | TGI [23]: 2.71 µM | GI50 [24]: 1.76 µM | TGI [24]: 3.54 µM | GI50 [25]: 1.59 µM | TGI [25]: 4.58 µM | GI50 [26]: 0.457 µM | TGI [26]: 3.86 µM | GI50 [27]: 1.69 µM | TGI [27]: 3.29 µM | GI50 [9]: 0.527 µM | TGI [9]: 3.02 µM | GI50 [10]: 1.63 µM | TGI [10]: 4.04 µM | GI50 [28]: 1.78 µM | TGI [28]: 3.39 µM | GI50 [12]: 2.11 µM | TGI [12]: 7.56 µM | GI50 [29]: 0.832 µM | TGI [29]: 2.4 µM | GI50 [30]: 1.17 µM | TGI [30]: 2.43 µM | GI50 [31]: 2.87 µM | TGI [31]: > 100 µM | GI50 [32]: 2.32 µM | TGI [32]: 6.68 µM | GI50 [14]: 2.24 µM | TGI [14]: 5.47 µM | GI50 [33]: 1.67 µM | TGI [33]: 3.55 µM | GI50 [34]: 1.67 µM | TGI [34]: 3.31 µM | GI50 [35]: 1.87 µM | TGI [35]: 3.81 µM | GI50 [36]: 2.15 µM | TGI [36]: 5.36 µM | GI50 [37]: 1.8 µM | TGI [37]: 3.63 µM | GI50 [16]: 2.31 µM | TGI [16]: 7.3 µM | GI50 [17]: 1.42 µM | TGI [17]: 2.84 µM | GI50 [38]: 1.56 µM | TGI [38]: 3.44 µM | GI50 [39]: 1.48 µM | TGI [39]: 5.26 µM | GI50 [40]: 2.91 µM | TGI [40]: 5.97 µM | GI50 [41]: 1.24 µM | TGI [41]: 2.7 µM | GI50 [42]: 3.04 µM | TGI [42]: 7.98 µM | GI50 [43]: 1.76 µM | TGI [43]: 3.79 µM

COc1cccc(C2CC(=O)c3cc(N4CCCC4)ccc3N2)c1 (stereo not given)
TGI [44]: > 100 µM | TGI [18]: > 100 µM | TGI [19]: 34.8 µM | TGI [45]: > 100 µM | TGI [1]: > 100 µM | TGI [22]: > 100 µM | GI50 [2]: 0.0146 µM | TGI [2]: 0.389 µM | TGI [46]: > 100 µM | GI50 [5]: > 100 µM | TGI [5]: > 100 µM | TGI [6]: > 100 µM | TGI [8]: > 100 µM | TGI [23]: > 100 µM | GI50 [25]: 0.0739 µM | TGI [25]: > 100 µM | GI50 [26]: 4.66 µM | TGI [26]: > 100 µM | TGI [27]: 1.49 µM | TGI [47]: 36.3 µM | TGI [10]: 0.163 µM | TGI [11]: 0.0624 µM | TGI [12]: 0.0491 µM | TGI [29]: > 100 µM | TGI [30]: > 100 µM | GI50 [31]: > 100 µM | TGI [31]: > 100 µM | TGI [48]: > 100 µM | TGI [32]: > 100 µM | TGI [33]: > 100 µM | TGI [34]: > 100 µM | GI50 [15]: 64.5 µM | TGI [15]: > 100 µM | TGI [16]: > 100 µM | TGI [38]: > 100 µM | TGI [39]: > 100 µM | GI50 [40]: 45.5 µM | TGI [40]: > 100 µM | TGI [42]: > 100 µM | TGI [49]: 65.8 µM
